We go through one compound from patent US11039614B2, “Solid herbicide compositions containing fluroxypyr-meptyl” (Dow AgroSciences LLC, priority 2015, dated 2021).

A value given as a limit tells only on which side of the number the result lay.

For data set [1] the following is noted: cited from earlier work.
A short description of data set [2]: Differential scanning calorimetry (DSC), degree of crystallinity. The class given is physicochemical. The source says:
The coated herbicide powder and the water dispersible granule compositions described herein include coated, solid particles of fluroxypyr-meptyl that are largely or nearly completely in crystalline form. The degree of crystallinity of the solid particles of fluroxypyr-meptyl in these compositions (i.e., the weight percent of the fluroxypyr-meptyl that is in crystalline form) can be determined by differential scanning calorimetry (DSC) analysis and comparing the thermal properties of these compositions to a crystalline, non-coated sample of fluroxypyr-meptyl. In some embodiments, the coated particles of fluroxypyr-meptyl in these compositions have a degree of crystallinity that is at least about 70%, at least about 80%, at least about 90%, at least about 91%, at least about 92%, at least about 93%, at least about 94%, at least about 95%, at least about 96%, at least about 97%, at least about 98%, or at least about 99% and is reached within about one day, within about 2 days, within about 3 days, within about 4 days, within about 5 days, within about 6 days, or within about 7 days from the time of preparation of these solid compositions. […]
(In DSC, transitions show as peaks or steps in heat flow.)

In the case of `CCCCCCC(C)OC(=O)COc1nc(F)c(Cl)c(N)c1Cl` (centres unmarked) [Fluroxypyr-meptyl, 2-methylheptyl ester of 4-amino-3,5-dichloro-6-fluoro-2-pyridyloxyacetic acid], the solubility in water in data set [1] was below 1 ppm. Also, the “DSC Thermal Data: Heat Flow (absorbed)” value in data set [2] was 70.01 J/g.
